Data: US12428388B2, “Nonionic polyether surfactants” (Cepheid, priority 2020, dated 2025)

Assays:
[1] = Stability in 2M NaOH (visual observation); format: physicochemical; details: 1% surfactant in 2M NaOH, room temperature
Procedure: In the following experiments, the properties of exemplary reduced polysorbates were compared with the starting materials purchased from Sigma: Tween 20® BioXtra, Cat No P7949 and Tween 80® BioXtra, Cat No P8074
The following solutions are prepared in two vials: (A) 1% Tween 20® in 2M NaOH; (B) 1% Compound 2 in 2M NaOH. Both solutions were left at room temperature and the changes were observed visually.
Similarly, hydrolytic stability of (A) Tween 80® and (B) Compound 2 were compared.

[2] = tested on: Esterase from porcine liver; test: Resistance to Esterase Hydrolysis; format: in vitro ADME; details: 1% surfactant in 10 mM tris-HCl (pH 8.0), CaCl2, Esterase from porcine liver (Sigma E2884), room temperature
Procedure: (§1) Stability of surfactants in the presence of hydrolyzing enzymes was tested according to a simplified literature procedure (Francisco J. Plou, Manuel Ferrer, Oscar M. Nuero, Maria V. Calvo, Miguel Alcalde, Fuensanta Reyes, Antonio Ballesteros. Analysis of Tween 80 as an esterase/lipase substrate for lipolytic activity assay. Biotechnology Techniques, Vol 12, No 3, March 1998, pp. 183-186.)
B2. Resistance to Esterase Hydrolysis
The following solutions were prepared in two vials: (A) to 20 mL of 1% Tween 20® in 10 mM tris-HCl (pH 8.0) is added 1 mL of 5% CaCl2) followed by 40 μL of 100 UN/mL solution of Esterase from porcine liver (Sigma E2884) in 10 μM tris-HCl (pH 8.0); (B) to 20 mL of 1% Compound 1 in 10 mM tris-HCl (pH 8.0) is added 1 mL of 5% CaCl2 followed by 40 μL of 100 UN/mL solution of Esterase from porcine liver in 10 μM tris-HCl (pH 8.0). Both solutions were left at room temperature and changes were observed visually.

[3] = target: T1, Lipase from porcine pancreas (Sus scrofa, UniProt P00591); test: Resistance to Lipase Hydrolysis; format: in vitro ADME; details: 1% surfactant in 10 mM tris-HCl (pH 8.0), CaCl2, Lipase from porcine pancreas (Sigma L3126), room temperature
T1 construct: Lipase from porcine pancreas (Sigma L3126); purchased Sigma L3126; host or cells: porcine pancreas (tissue-derived)
T1 sequence (P00591 1-450): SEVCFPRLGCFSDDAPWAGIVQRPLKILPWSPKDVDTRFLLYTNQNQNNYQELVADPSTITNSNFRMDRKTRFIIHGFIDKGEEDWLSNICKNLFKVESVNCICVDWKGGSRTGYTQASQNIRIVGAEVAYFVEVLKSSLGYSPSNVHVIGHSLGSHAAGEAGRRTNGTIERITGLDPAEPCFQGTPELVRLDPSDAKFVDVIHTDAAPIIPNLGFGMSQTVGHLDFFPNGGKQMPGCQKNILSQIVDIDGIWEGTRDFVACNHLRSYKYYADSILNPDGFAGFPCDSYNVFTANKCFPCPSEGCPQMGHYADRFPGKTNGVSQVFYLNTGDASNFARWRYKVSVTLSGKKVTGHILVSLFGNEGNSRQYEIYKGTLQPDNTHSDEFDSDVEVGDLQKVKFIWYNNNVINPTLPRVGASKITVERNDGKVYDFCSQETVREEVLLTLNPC
Procedure: as §1
B1. Resistance to Lipase Hydrolysis
The following solutions are prepared in two vials: (A) to 20 mL of 1% Tween 20® in 10 mM tris-HCl (pH 8.0) is added 1 mL of 5% CaCl2) followed by 2 mL of 2 mg/mL solution of Lipase from porcine pancreas (Sigma L3126) in 10 μM tris-HCl (pH 8.0); (B) to 20 mL of 1% Compound 1 in 10 mM tris-HCl (pH 8.0) is added 1 mL of 5% CaCl2) followed by 2 mL of 2 mg/mL solution of Lipase from porcine pancreas (Sigma L3126) in 10 μM tris-HCl (pH 8.0). Both solutions were left at room temperature, and changes were observed visually.

Substance | hydrolytic stability in 2M NaOH, changes of the solution observed visually [1] | stability to esterase hydrolysis, changes of the solution observed visually [2] | stability to lipase hydrolysis, changes of the solution observed visually [3]
polyoxyethylene sorbitan monolaurate [Tween 20®] | became non-transparent within one hour and turned into stiff gel the next day | became cloudy within one hour and became non-transparent the next day | became cloudy within one hour and became non-transparent the next day
polyoxyethylene sorbitan monooleate [Tween 80®] | became cloudy within one hour and turned into a stiff gel the next day |  | 
